Where “and” joins values, the source holds several entries; their conditions need not be identical. Identical values can stand only once. Toxic doses and inconclusive results are not listed. The calls were made as follows: active = survival T/C of 150% or more; inactive = T/C below 125% in these data.
Test system: P388 leukemia ip, CD2F1 mice, survival T/C
Experiment: NCI In Vivo Anticancer Drug Screen. Data for tumor model P388 Leukemia (intraperitoneal) in CD2F1 (CDF1) mice
Conditions: endpoint: median survival time, higher = longer survival
In short: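 Mice carrying the transplanted tumor received test compound or vehicle. Survival was recorded in each group, and the value is the treated-group measurement divided by that of the vehicle-treated control group.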

[1] = dose: 25.0 mg/kg/injection, schedule: Q01DX009 (ip), vehicle: saline with Tween-80
[2] = dose: 60.0 mg/kg/injection, schedule: Q01DX005 (ip), vehicle: saline with Tween-80
[3] = dose: 120.0 mg/kg/injection, schedule: Q01DX005 (ip), vehicle: saline with Tween-80
[4] = dose: 240.0 mg/kg/injection, schedule: Q01DX005 (ip), vehicle: saline with Tween-80
[5] = dose: 50.0 mg/kg/injection, schedule: Q01DX005 (ip), vehicle: Klucel (hydroxypropylcellulose) (HPC)
[6] = dose: 100.0 mg/kg/injection, schedule: Q01DX005 (ip), vehicle: Klucel (hydroxypropylcellulose) (HPC)
[7] = dose: 200.0 mg/kg/injection, schedule: Q01DX005 (ip), vehicle: Klucel (hydroxypropylcellulose) (HPC)
[8] = dose: 100.0 mg/kg/injection, schedule: Q04DX002 (ip), vehicle: Klucel (hydroxypropylcellulose) (HPC)
[9] = dose: 200.0 mg/kg/injection, schedule: Q04DX002 (ip), vehicle: Klucel (hydroxypropylcellulose) (HPC)
[10] = dose: 50.0 mg/kg/injection, schedule: Q01DX005 (ip), vehicle: saline with Tween-80
[11] = dose: 100.0 mg/kg/injection, schedule: Q01DX005 (ip), vehicle: saline with Tween-80
[12] = dose: 200.0 mg/kg/injection, schedule: Q01DX005 (ip), vehicle: saline with Tween-80

Measured: T/C

CC1CCC2(OC1)OC1C(O)C3C4CCC5CC(OC6OC(CO)C(OC7OC(CO)C(O)C(OC8OCC(O)C(O)C8O)C7OC7OC(CO)C(O)C(OC8OC(CO)C(O)C(O)C8O)C7O)C(O)C6O)C(O)CC5(C)C4CCC3(C)C1C2C (stereo not given)
inactive: dose: 0.62 mg/kg/injection, schedule: Q01DX009 (ip), vehicle: saline 101 % of control | dose: 1.25 mg/kg/injection, schedule: Q01DX009 (ip), vehicle: saline 98 % of control | dose: 2.5 mg/kg/injection, schedule: Q01DX009 (ip), vehicle: saline 93 % of control | dose: 5.0 mg/kg/injection, schedule: Q01DX009 (ip), vehicle: saline 87 % of control | dose: 40.0 mg/kg/injection, schedule: Q01DX009 (ip), vehicle: saline 86 % of control

[Cl][Sn]1([Cl])[N]2CCCCC2C2CCCC[N]21 (stereo not given)
inactive: dose: 100.0 mg/kg/injection, schedule: Q04DX003 (ip), vehicle: saline with Tween-80 97 % of control | dose: 200.0 mg/kg/injection, schedule: Q04DX003 (ip), vehicle: saline with Tween-80 99 % of control

C[N+](C)(C)CCCCC[N+](C)(C)C
inactive: dose: 6.25 mg/kg/injection, schedule: Q01DX009 (ip), vehicle: saline 110 % of control | dose: 12.5 mg/kg/injection, schedule: Q01DX009 (ip), vehicle: saline 110 % of control | [1] 100 % of control | dose: 25.0 mg/kg/injection, schedule: Q01DX009 (ip), vehicle: saline 110 % of control | dose: 50.0 mg/kg/injection, schedule: Q01DX009 (ip), vehicle: saline with Tween-80 104 % of control | dose: 100.0 mg/kg/injection, schedule: Q01DX009 (ip), vehicle: saline with Tween-80 100 % of control

CCCCCC(Cl)(CC)CCCCC
inactive: dose: 100.0 mg/kg/injection, schedule: Q01DX009 (ip), vehicle: saline 110 % of control | dose: 200.0 mg/kg/injection, schedule: Q01DX009 (ip), vehicle: saline 108 % of control | dose: 400.0 mg/kg/injection, schedule: Q01DX009 (ip), vehicle: saline 109 % of control

O=C(c1ccc(Cl)cc1)c1cc2ccccc2oc1=O
inactive: [2] 92 % of control | [3] 93 % of control | [4] 93 % of control

COc1ccc(CC2c3cc(OC)c(OC)c(OC)c3CC[N+]2(C)C)cc1Oc1ccc(CC2c3cc4c(c(OC)c3CCN2C)OCO4)cc1 (stereo not given)
inactive: dose: 3.13 mg/kg/injection, schedule: Q04DX002 (ip), vehicle: saline 99 % of control | dose: 6.25 mg/kg/injection, schedule: Q04DX002 (ip), vehicle: saline 103 % of control

Nc1ccc(-c2ccc3ccccc3n2)cc1
inactive: dose: 3.13 mg/kg/injection, schedule: Q01DX009 (ip), vehicle: Klucel (hydroxypropylcellulose) (HPC) 103 % of control | dose: 6.25 mg/kg/injection, schedule: Q01DX009 (ip), vehicle: Klucel (hydroxypropylcellulose) (HPC) 101 % of control | dose: 12.5 mg/kg/injection, schedule: Q01DX009 (ip), vehicle: Klucel (hydroxypropylcellulose) (HPC) 106 % of control | dose: 25.0 mg/kg/injection, schedule: Q01DX009 (ip), vehicle: Klucel (hydroxypropylcellulose) (HPC) 88 % of control

COC(=O)c1ccc(Nc2cn[nH]n2)cc1
inactive: [5] 101 % of control | [6] 100 % of control | [7] 98 % of control

N#CC(NCc1ccccc1)c1ccc2c(c1)OCO2 (stereo not given)
inactive: [1] 90 % of control

O=[N+]([O-])c1cccc(N/N=C\c2cccc3c(/C=N/Nc4cccc([N+](=O)[O-])c4)c(Cl)n(-c4ccccc4)c23)c1
inactive: dose: 100.0 mg/kg/injection, schedule: Q01DX001 (ip), vehicle: Klucel (hydroxypropylcellulose) (HPC) 86 % of control

COc1ccc(C(OC)C2CCCCC2N2CCCCC2)cc1 (stereo not given)
inactive: dose: 0.5 mg/kg/injection, schedule: Q01DX009 (ip), vehicle: Klucel (hydroxypropylcellulose) (HPC) 107 % of control | dose: 1.0 mg/kg/injection, schedule: Q01DX009 (ip), vehicle: Klucel (hydroxypropylcellulose) (HPC) 114 % of control | dose: 2.0 mg/kg/injection, schedule: Q01DX009 (ip), vehicle: Klucel (hydroxypropylcellulose) (HPC) 107 % of control | dose: 4.0 mg/kg/injection, schedule: Q01DX009 (ip), vehicle: Klucel (hydroxypropylcellulose) (HPC) 109 % of control

OC(CCCN1CCN2CCc3[nH]c4ccccc4c3C2C1)c1ccc(F)cc1 (stereo not given)
inactive: [8] 100 % of control | [9] 95 % of control | dose: 400.0 mg/kg/injection, schedule: Q04DX002 (ip), vehicle: Klucel (hydroxypropylcellulose) (HPC) 100 % of control

CN(C)[C@@H]1C(=O)C(C(=O)NCNC2CC(C)(C)N(O)C(C)(C)C2)=C(O)C2(O)C(=O)C3=C(O)c4c(O)cccc4[C@@](C)(O)C3CC12 (stereo not given in full)
inactive: dose: 100.0 mg/kg/injection, schedule: Q01DX001 (ip), vehicle: saline 105 % of control | dose: 200.0 mg/kg/injection, schedule: Q01DX001 (ip), vehicle: saline 89 % of control | dose: 400.0 mg/kg/injection, schedule: Q01DX001 (ip), vehicle: saline 91 % of control

CC(=O)Nc1nc(C)c(CCCNS(=O)(=O)c2ccc([N+](=O)[O-])cc2)c(=O)[nH]1
inactive: dose: 15.0 mg/kg/injection, schedule: Q01DX005 (ip), vehicle: saline with Tween-80 100 % of control | dose: 30.0 mg/kg/injection, schedule: Q01DX005 (ip), vehicle: saline with Tween-80 101 % of control | [2] 93 % of control and 95 % of control

CN1CCC2(C)CC1Cc1ccc(O)cc12 (stereo not given)
inactive: dose: 3.12 mg/kg/injection, schedule: Q01DX005 (ip), vehicle: saline 96 % of control | dose: 6.25 mg/kg/injection, schedule: Q01DX005 (ip), vehicle: saline 104 % of control | dose: 12.5 mg/kg/injection, schedule: Q01DX005 (ip), vehicle: saline 105 % of control | dose: 25.0 mg/kg/injection, schedule: Q01DX005 (ip), vehicle: saline 96 % of control

COC(=O)c1cc2ccc1OCC#CC#CCOc1ccc(cc1C(=O)OC)OCC#CC#CCO2
inactive: [2] 89 % of control | [3] 88 % of control | [4] 88 % of control

CC(=O)NC(CC(C)C(C)=O)C(=O)O (stereo not given)
inactive: dose: 50.0 mg/kg/injection, schedule: Q01DX005 (ip), vehicle: saline 92 % of control | dose: 100.0 mg/kg/injection, schedule: Q01DX005 (ip), vehicle: saline 95 % of control | dose: 200.0 mg/kg/injection, schedule: Q01DX005 (ip), vehicle: saline 92 % of control

CC1=C(c2ccccc2)OC(=O)C(Cl)(Cl)C1N(c1ccccc1)c1ccccc1 (stereo not given)
inactive: [10] 88 % of control | [11] 93 % of control | [12] 93 % of control

CC(C)(OC(=O)c1ccc([N+](=O)[O-])cc1)C(=O)O
inactive: dose: 50.0 mg/kg/injection, schedule: Q01DX009 (ip), vehicle: Klucel (hydroxypropylcellulose) (HPC) 99 % of control | dose: 100.0 mg/kg/injection, schedule: Q01DX009 (ip), vehicle: Klucel (hydroxypropylcellulose) (HPC) 98 % of control | dose: 200.0 mg/kg/injection, schedule: Q01DX009 (ip), vehicle: Klucel (hydroxypropylcellulose) (HPC) 98 % of control

Cc1nc(N)nc(Nc2ccccc2)n1
inactive: [2] 103 % of control | [3] 99 % of control | [4] 101 % of control

CCOC(=O)c1ccc(N2C(C(=O)OCC)Nc3ccc(C(=O)OCC)cc3C2C(=O)OCC)cc1 (stereo not given)
inactive: [8] 97 % of control | [9] 88 % of control

CCC[C@H]1[C@H](CCC)[C@@]2(OC(=O)C3=C2CCC=C3)[C@]12OC(=O)C1=C2CCC=C1
inactive: dose: 11.25 mg/kg/injection, schedule: Q01DX005 (ip), vehicle: Klucel (hydroxypropylcellulose) (HPC) 98 % of control | dose: 22.5 mg/kg/injection, schedule: Q01DX005 (ip), vehicle: Klucel (hydroxypropylcellulose) (HPC) 90 % of control | dose: 45.0 mg/kg/injection, schedule: Q01DX005 (ip), vehicle: Klucel (hydroxypropylcellulose) (HPC) 88 % of control | dose: 90.0 mg/kg/injection, schedule: Q01DX005 (ip), vehicle: Klucel (hydroxypropylcellulose) (HPC) 100 % of control

O=C1NC(O)c2cccc(Cl)c2O1 (stereo not given)
inactive: [10] 102 % of control | [11] 102 % of control | [12] 107 % of control

CC(C(=O)O)c1cccc2c(=O)cc(-c3ccccc3)oc12 (stereo not given)
inactive: [5] 100 % of control | [6] 87 % of control | [7] 109 % of control

OC1(C(F)(F)F)NN2C=CC=CC2=NO1 (stereo not given)
inactive: [2] 95 % of control | [3] 96 % of control | [4] 100 % of control

O=[N+]([O-])c1ccc(N2N=NC(CN3CCOCC3)C2N2CCOCC2)cc1 (stereo not given)
inactive: dose: 60.0 mg/kg/injection, schedule: Q01DX005 (ip), vehicle: Klucel (hydroxypropylcellulose) (HPC) 111 % of control | dose: 120.0 mg/kg/injection, schedule: Q01DX005 (ip), vehicle: Klucel (hydroxypropylcellulose) (HPC) 117 % of control | dose: 240.0 mg/kg/injection, schedule: Q01DX005 (ip), vehicle: Klucel (hydroxypropylcellulose) (HPC) 118 % of control

From PubChem BioAssay AID330 (DTP/NCI, 2004)
